Experimental data taken from US20160128339A1, “CHROMOBACTERIUM FORMULATIONS, COMPOSITIONS, METABLOITES AND THEIR USES” (priority 2011, published 2016).

Tests used:
[1] = test system: TSSM; experiment: TSSM control on field strawberry transplants; format: in vivo, Tetranychus urticae; conditions: rate/acre: abamectin 16 fl. oz., bifenzate 1 lb + INDUCE, COHERE 16 fl. oz., spiromesifin 12 fl. oz. + INDUCE, fenpyroximate 32 fl. oz., hexythiazox 6 oz.; for Number of eggs TSSM/leaflet day 90 / Number of motile TSSM/leaflet day 90: before first spray
Protocol: The efficacy of five traditional compounds and MBI-203 ingredients were evaluated for TSSM control on field strawberry transplants at the Florida Gulf Coast Research and Education Center. Seedlings were transplanted in the Field (day 0), Each 12.5-ft. plot consisted of 20 plants. Plots were infested four times from day 55 through day 71 with 10 to 20 motile TSSM per plant. Seventeen treatments of various rates and schedules of application of miticides, some combined with an adjuvant, and a non-treated check were replicated four times in a RCB design. Treatments were applied using a hand held sprayer with a spray wand outfitted with a nozzle containing a 45-degree core and a number four disc. The sprayer was pressurized by CO2, to 40 psi, and calibrated to deliver 100 gal per acre. Samples were collected weekly from day 90 before first spray through 2 wks after the last application of treatments (day 154). Samples consisted of ten randomly selected leaflets per plot and were collected from the middle one-third stratum of the plants. Motile and egg TSSM were brushed from the leaflets onto rotating sticky discs and counted. No phytotoxicity was observed.

[2] = test system: green peach aphid (GPA) adults; experiment: Green peach aphid progeny production on treated pepper leaf discs; format: in vivo, Myzus persicae; conditions: 1.0 μg/mL in acetone, 100 μL per leaf disc; 3 days
Protocol: MBI-203 at 3% v/v concentration was tested to determine the effect of the compound on the progeny production of green peach aphid (GPA) adults. Bioassays were performed by iteming pepper leaf discs with MBI-203 at 3% v/v. Pepper leaf discs (from 3-4 week old pepper plants) were cut in circles using a 23 mm cookie cutter, selecting a flat portion of tbe leaf to make sure the disc can be evenly laid flat on the agar plate. A 1% agar solution was melted by heating and 30 μL, poured in each petri plate (16 mm×35 mm vented, polystyrene petri plates), just enough to cover the bottom of the plate to prop leaf discs and maintain humidity. The agar was allowed to solidify by cooling at room temperature. Leaf disc treatment was performed by pouring the treatment solution into a glass petri dish. With the solution in the dish, leaf discs were treated by soaking, gently swirling the dish to completely soak and coat the leaf discs. Treatment of leaf discs by soaking was done for 1 minute. […] Progeny (early nymphal instars) were counted 3 days after adult exposure to treated leaf discs. […]
Two concentrations of pare violacein compound in acetone, 0.5 μg/mL and 1.0 μg/mL were used in the test to determine the effect of the compound on the progeny production of green peach aphid (GPA) adults. […] Progeny (early nymphal instars) were counted 3 days after adult exposure to treated leaf discs. […]

[3] = test system: Green Peach Aphid adults (GPA); experiment: Green peach aphid choice repellency bioassay of extracts, fractions and pure compound; format: in vivo, Myzus persicae; conditions: violacein purified from F9 and F10
Protocol: Choice bioassays on Green Peach Aphid adults (GPA) were done using MBI-203 fractions and pure compound. Fractions and pure compound (violacein) obtained from the extraction of cell paste of C. substugae (MBI-203) were tested for insect efficacy through repellency bioassays. Pepper leaf discs (from 3-4 week old pepper plants) were cut in circles using a 23 mm cookie cutter, selecting a flat portion of the leaf to make sure the leaf disc can be evenly laid flat into the agar plate after treatment of the compound. One percent (%) agar in water was prepared. The 1% agar solution was melted by heating and poured into the 145 mm×20 mm petri plate, enough to cover the bottom surface of the plate to prop leaf discs and maintain humidity. The agar was allowed to solidify by cooling at room temperature.
Leaf disc treatment was done by pipetting gently 100 μL of MBI-203 extract unto the underside of the leaf disc. Treated leaf discs were then allowed to dry off by laying the disc flat unto a labeled 12-well plate cover. […]
All tests were done in three replications. […] Data for repellency of adults and nymphs was determined 24 hours post exposure of adults on treated leaf discs. The number of aphids (adults and nymphs) was counted and data recorded and analyzed, The percent repellency was computed as: % Repellency=100-{([N+A]“on petri dish”)/[N+A]“on petri dish” X100}, […]

[4] = test system: M. hapla nematodes; experiment: In vitro 96-well nematode immobility bioassay; format: in vivo; conditions: M. hapla J2; 100 μl of 4 mg/ml sample; 24 hour at 25° C.
Protocol: The fractions and pure compounds were dissolved in Dimethylsulfoxide (DMSO) and were tested in an in vitro 96-well plastic cell-culture plate bioassay. Around 15-20 nematodes in a 50 μl water solution were exposed to 100 μl of a 4 mg/ml of sample for a 24 hour period at 25° C. Once the incubation period was completed, results were recorded based on a visual grading of immobility of the juvenile nematodes (J2°s) in each well treated with sampler; each treatment was tested in well repetitions of four. […] Three controls were included in each trial; 1 positive (1% Avid) & 2 negative (DMSO & water). Both trials (T1) and (T2) were carried out using M. hapla nematodes.

Row | Compound | Number of eggs TSSM/leaflet day 90 [1] | Number of motile TSSM/leaflet day 90 [1] | Number of eggs TSSM/leaflet day 98 [1] | Number of eggs TSSM/leaflet day 105 [1] | Number of eggs TSSM/leaflet day 111 [1] | Number of eggs TSSM/leaflet day 118 [1] | Number of eggs TSSM/leaflet day 125 [1] | Number of eggs TSSM/leaflet day 132 [1] | Number of eggs TSSM/leaflet day 139 [1] | Number of eggs TSSM/leaflet day 146 [1] | Number of eggs TSSM/leaflet day 154 [1] | Number of motile TSSM/leaflet day 98 [1] | Number of motile TSSM/leaflet day 105 [1] | Number of motile TSSM/leaflet day 111 [1] | Number of motile TSSM/leaflet day 118 [1] | Number of motile TSSM/leaflet day 125 [1] | Number of motile TSSM/leaflet day 132 [1] | Number of motile TSSM/leaflet day 139 [1] | Number of motile TSSM/leaflet day 146 [1] | Number of motile TSSM/leaflet day 154 [1] | also measured
1 | COc1ccc(-c2ccccc2)cc1NNC(=O)OC(C)C [Bifenzate] | 3.8 | 3.8 | 6.0 | 6.0 | 0.8 | 8.3 | 20.5 | 3.01 | 28.0 | 66.5 | 128.3 | 6.0 | 6.0 | 0.8 | 8.3 | 20.5 | 3.0 | 28.0 | 66.5 | 128.3 | 
2 | Cc1nn(C)c(Oc2ccccc2)c1C=NOCc1ccc(C(=O)OC(C)(C)C)cc1 [Fenpyroximate] | 9.3 | 4.5 | 11.8 | 12.3 | 12.5 | 1.0 | 34.5 | 20.8 | 28.5 | 97.3 | 240.8 | 3.8 | 6.5 | 2.8 | 2.0 | 7.3 | 5.3 | 10.0 | 34.3 | 145.3 | 
3 | C[C@@H]1[C@@H](c2ccc(Cl)cc2)SC(=O)N1C(=O)NC1CCCCC1 [Hexythiazox] | 2.0 | 2.0 | 8.5 | 15.0 | 17.0 | 22.0 | 71.5 | 128.5 | 281.5 | 393.5 | 533.0 | 1.8 | 2.8 | 6.0 | 13.8 | 23.0 | 57.5 | 103.3 | 196.0 | 285.5 | 
4 | Cc1cc(C)c(C2=C(OC(=O)CC(C)(C)C)C3(CCCC3)OC2=O)c(C)c1 [Spiromesifin] | 7.3 | 2.8 | 5.3 | 7.3 | 5.0 | 1.5 | 2.3 | 2.8 | 0.8 | 4.5 | 25.5 | 2.3 | 2.0 | 2.3 | 0.5 | 0.8 | 0.5 | 2.5 | 2.8 | 6.0 | 
5 | O=C1NC(c2c[nH]c3ccc(O)cc23)=C/C1=C1\C(=O)Nc2ccccc21 [violacein] |  |  |  |  |  |  |  |  |  |  |  |  |  |  |  |  |  |  |  |  | reduction of progeny production compared to the negative control [2]: about 50%; repellency [3]: 300%
6 | Abamectin | 6.8 | 8.5 | 17.0 | 26.5 | 12.0 | 1.3 | 2.3 | 6.5 | 3.5 | 3.5 | 41.3 | 4.5 | 6.3 | 5.3 | 0.5 | 0.5 | 3.0 | 6.3 | 6.8 | 15.3 | 
7 | Oligo-(β-hydroxybutyric acid) |  |  |  |  |  |  |  |  |  |  |  |  |  |  |  |  |  |  |  |  | immobility [4]: 75%
